Experimental data: patent publication US20190111059A1, “COMPOSITIONS AND METHODS FOR TREATING AUTISM SPECTRUM DISORDER” (Marinus Pharmaceuticals, Inc., priority 2017, published 2019)
Where a name gives a salt, the structure may show the parent alone.

Test system: children with non-syndromic autism spectrum disorder (ASD) and language impairment
Assay: Randomized placebo-controlled trial: Vineland Adaptive Behavior Scale (VABS)
Assay type: in vivo, human
Conditions: higher = better; for VABS Daily living, estimated effect: calcium salt
Description: The Vineland Adaptive Behavior Scale 2nd Edition (“VABS”) is a reliable and valid measure of the ability to perform age-appropriate everyday skills though a 20-30 min structured interview with a caretaker. Standard scores from the communication, daily living, social and motor skills, and adaptive behavioral composite were analyzed. Standard scores have a mean of 100, standard deviation of 15 and range 20-160. […] This two-arm double-blind randomized placebo-controlled parallel study with a 1:1 allocation was performed at Arkansas Children's Research Institute (Little Rock, Ark., USA) from 4 Jun. 2012 to 22 Nov. 2013. Those confirmed to have language impairment were randomized to the folinic acid or placebo group and a fasting blood sample was obtained. Randomization was performed using a random number generator with a block size of four. The research pharmacists had exclusive access to the randomization allocation. After breakfast, the participants returned for language, developmental and behavioral assessments. Following these assessments the family was given the 12 weeks of the intervention and was instructed on its administration. Language, developmental and behavioral assessments were repeated after 12 weeks of treatment. The target dose of the intervention (INN: DL folinic acid calcium salt; USAN: leucovorin calcium) was 2 mg kg^−1 per day (maximum 50 mg per day) in two equally divided doses with half of the target dose given during the first 2 weeks. Dye-free, milk-product-free, vegetarian capsules were provided in three strengths (5, 10 and 25 mg) by Lee Silsby Compounding Pharmacy (Cleveland Heights, Ohio, USA). Certificate of analysis was provided for each capsule strength by an independent analytical service (Eagle Analytical Services, Houston, Tex., USA) for each batch of capsules produced. In all cases, potency was at least 99%. Secondary outcomes. Secondary outcome measures included the Ohio Autism Clinical Impression Scale (OACIS), Vineland Adaptive Behavior Scale 2nd Edition (VABS) Survey Interview Form and several questionnaires. Parents and teachers were asked to complete the Aberrant Behavior Checklist (ABC), Social Responsiveness Scale (SRS) and Behavioral Assessment System for Children 2nd Edition (BASC). Only parents were asked to complete the Autism Impact Measure (AIM) and Autism Symptoms Questionnaire (ASQ). Secondary outcome measures were analyzed using the mixed-model regression. Because of the large number of secondary outcomes, correction for multiple comparisons was conducted using the false discovery rate.

[1] = vs placebo, mixed-model regression

What does the source list for `Nc1nc2c(c(=O)[nH]1)N(C=O)C(CNc1ccc(C(=O)N[C@@H](CCC(=O)O)C(=O)O)cc1)CN2` (mixture of isomers) [Folinic acid, DL folinic acid calcium salt]?
VABS Social skills, 12-week assessment mean (2 mg kg^−1 per day, 12 weeks, baseline 64.4): 68.3 Standard Score; VABS Daily living, 12-week assessment mean (2 mg kg^−1 per day, 12 weeks, baseline 64.6): 69.2 Standard Score; VABS Adaptive behavior, 12-week assessment mean (2 mg kg^−1 per day, 12 weeks, baseline 64.8): 67.7 Standard Score; VABS Communication, 12-week assessment mean (2 mg kg^−1 per day, 12 weeks, baseline 66.2): 68.3 Standard Score; VABS Motor skills, 12-week assessment mean (2 mg kg^−1 per day, 12 weeks, baseline 78.9): 81.7 Standard Score; VABS Adaptive behavior, estimated effect [1]: 0.3 Standard Score; VABS Communication, estimated effect [1]: 0.2 Standard Score; VABS Motor skills, estimated effect [1]: 0.1 Standard Score; VABS Social skills, estimated effect [1]: 0.2 Standard Score; VABS Daily living, estimated effect [1]: 0.5 Standard Score; VABS Daily living, estimated effect (vs placebo, mixed-model regression, listed as folinic acid): significantly improved
